The subject of assay [1] is uterus of ovariectomized (OVX) rats. The assay is described as follows: Uterine weight in ovariectomized rats (post-menopausal model, agonist activity). Conditions: for change in vivo at 0.1 mg/kg: Rattus norvegicus, po, 96 h, read-out: Uterine Weight (% increase vs. OVX); for change in vivo at 0.1 mg/kg / Uterine Weight (% increase vs. OVX): daily for 4 days. Type of assay: in vivo, Sprague Dawley rats. The protocol: (§1) In the examples illustrating the methods, a post-menopausal model was used in which effects of different treatments upon circulating lipids were determined.
(§2) Seventy-five day old female Sprague Dawley rats (weight range of 200 to 225g) were obtained from Charles River Laboratories (Portage, Mich.). The animals were either bilaterally ovariectomized (OVX) or exposed to a Sham surgical procedure at Charles River Laboratories, and then shipped after one week. Upon arrival, they were housed in metal hanging cages in groups of 3 or 4 per cage and had ad libitum access to food calcium content approximately 0.5%) and water for one week. Room temperature was maintained at 22.2°±1.7° C. with a minimum relative humidity of 40%. The photoperiod in the room was 12 hours light and 12 hours dark.
(§3) Dosing Regimen Tissue Collection. After a one week acclimation period (therefore, two weeks post-OVX) daily dosing with test compound was initiated. […] Animals were dosed daily for 4 days. Following the dosing regimen, animals were weighed and anesthetized with a ketamine: Xylazine (2:1, V:V) mixture and a blood sample was collected by cardiac puncture. The animals were then sacrificed by asphyxiation with CO2, the uterus was removed through a midline incision, and a wet uterine weight was determined.

For assay [2], the system named is Uterine Eosinophil Peroxidase (EPO). The assay is described as follows: Uterine Eosinophil Peroxidase (EPO) Assay in ovariectomized rats. Type of assay: in vivo, Sprague Dawley rats. To be noted: oral, daily for 4 days, OVX rats. The arrangement: key: max velocity of A450 increase over a 15 s interval. The protocol:
as §1, §2, §3
Uterine Eosinophil Peroxidase (EPO) Assay. Uteri were kept at 4° C. until time of enzymatic analysis. The uteri were then homogenized in 50 volumes of 50 mM Tris buffer (pH-8.0) containing 0.005% Triton X-100. Upon addition of 0.01% hydrogen peroxide and 10 mM O-phenylenediamine (final concentrations) in Tris buffer, increase in absorbance was monitored for one minute at 450 nm. The presence of eosonophils in the uterus is an indication of estrogenic activity of a compound. The maximal velocity of a 15 second interval was determined over the initial, linear portion of the reaction curve.

For a further assay, the system named is Serum Cholesterol. The assay is described as follows: Serum cholesterol analysis in ovariectomized rats. Type of assay: in vivo, Sprague Dawley rats. The protocol: as §1, §2, §3
Cholesterol Analysis. Blood samples were allowed to clot at room temperature for 2 hours, and serum was obtained following centrifugation for 10 minutes at 3000 rpm. Serum cholesterol was determined using a Boehringer Mannheim Diagnostics high performance cholesterol assay. Briefly the cholesterol was oxidized to cholest-4-en-3-one and hydrogen peroxide. The hydrogen peroxide was then reacted with phenol and 4-aminophenazone in the presence of peroxidase to produce a p-quinone imine dye, which was read spectrophotemetrically at 500 nm. Cholesterol concentration was then calculated against a standard curve. The entire assay was automated using a Biomek Automated Workstation.

Assay [3] relates to femur density of ovariectomized rats. The assay is described as follows: Osteoporosis Test (bone density of ovariectomized rats). Type of assay: in vivo, Sprague Dawley rats. Conditions: OVX rats, daily for 35 days. From the text:
Following the General Preparation Procedure, infra, the rats or treated daily for 35 days (6 rats per treatment group) and sacrificed by carbon dioxide asphyxiation on the 36th day. The 35 day time period is sufficient to allow maximal reduction in bone density, measured as described herein. At the time of sacrifice, the uteri are removed, dissected free of extraneous tissue, and the fluid contents are expelled before determination of wet weight in order to confirm estrogen deficiency associated with complete ovariectomy. […] The uteri are then placed in 10% neutral buffered formalin to allow for subsequent histological analysis. The right femurs are excised and digitilized x-rays generated and analyzed by an image analysis program (NIH image) at the distal metaphysis. The proximal aspect of the tibiae from these animals are also scanned by quantitative computed tomography. In general, ovariectomy of test animals will cause a significant reduction in femur density compared to intact, vehicle treated controls.

Assay [4] deals with MCF-7 breast adenocarcinoma cells. Put plainly: MCF-7 Proliferation Assay (tritiated thymidine). Type of assay: cell-based. To be noted: 48 hours, tritiated thymidine incorporation. The protocol: MCF-7 breast adenocarcinoma cells (ATCC HTB 22) were maintained in MEM (minimal essential medium, phenol red-free, Sigma, St. Louis, Mo.) supplimented with 10% fetal bovine serum (FBS) (V/V), L-glutamine (2 mM), sodium pyruvate (1 mM), HEPES {(N-[2-hydroxyethyl]piperazine-N'-[2-ethanesulfonic acid]10 mM}, non-essential amino acids and bovine insulin (1 ug/mL) (maintenance medium). Ten days prior to assay, MCF-7 cells were switched to maintenance medium supplemented with 10% dextran coated charcoal stripped fetal bovine serum (DCC-FBS) assay medium) in place of 10% FBS to deplete internal stores of steroids. MCF-7 cells were removed from maintenance flasks using cell dissociation medium (Ca++/Mg++ free HBSS (phenol red-free) supplemented with 10 mM HEPES and 2 mM EDTA). Cells were washed twice with assay medium and adjusted to 80,000 cells/mL. Approximately 100 μL (8,000 cells) were added to flat-bottom microculture wells (Costar 3596) and incubated at 37° C. in a 5% CO2 humidified incubator for 48 hours to allow for cell adherence and equilibration after transfer. Serial dilutions of drugs or DMSO as a diluent control were prepared in assay medium and 50 μL transferred to triplicate microcultures followed by 50 μL assay medium for a final volume of 200 μL. After an additional 48 hours at 37° C. in a 5% CO2 humidified incubator, microcultures were pulsed with tritiated thymidine (1 uCi/well) for 4 hours. Cultures were terminated by freezing at -70° C. for 24 hours followed by thawing and harvesting of microcultures using a Skatron Semiautomatic Cell Harvester. Samples were counted by liquid scintillation using a Wallac BetaPlace β counter. Results in Table 2 below show the IC50 for certain compounds of the present invention.

Consider `C#C[C@]1(O)CC[C@H]2[C@@H]3CCc4cc(O)ccc4[C@H]3CC[C@@]21C` [EE2, 17α-ethynyl estradiol, reference compound], for which, in assay [1], the change in vivo at 0.1 mg/kg came to 86.3%. Further, the “Uterine weight / uterine stimulation, result in words” value in assay [1] (oral, EE2 at 0.1 mg/kg/day) is on record as “exerted a stimulatory action on the uterus so that EE2 uterine weight was substantially greater than the uterine weight of ovariectomized test animals”. In addition, the “Uterine EPO (V. max)” value in assay [2] (0.1 mg/kg) was 116.4. In addition, the inhibition in vivo at 0.1 mg/kg with Serum Cholesterol (Rattus norvegicus, po, 96 h, 0.1 mg/kg, daily for 4 days, OVX rats, read-out: Serum Cholesterol (% decrease vs. OVX)) is 81.4%. Further, in the assay with Serum Cholesterol (oral, OVX rats, EE2 at 0.1 mg/kg/day), the “Serum cholesterol, result in words” value is reported as “caused a decrease in serum cholesterol”. Also, the “Prevention of bone loss after ovariectomy, result in words” value in assay [3] is on record as “usually prevents this loss”.

As for `COc1ccc2c(C(=O)c3ccc(OCCN4CCCCC4)cc3)c(-c3cccs3)sc2c1` [Example 5, [2-(2-Thienyl)-6-methoxybenzothien-3-yl][4-[2-(1-piperdinyl)ethoxy]phenyl]methanone], the “Uterine Weight (% increase vs. OVX)” value in assay [1] (1.0 mg/kg, oral) came out at 1.4%; in assay [1] (10.0 mg/kg, oral), 28.6%. In assay [1], the change in vivo at 0.1 mg/kg was 2.4%. In addition, the “Uterine EPO (V. max)” value in assay [2] (0.1 mg/kg) is recorded as 3.0; in assay [2] (1.0 mg/kg), 3.3; in assay [2] (10.0 mg/kg) it was 4.2. The “Serum Cholesterol (% decrease vs. OVX)” value in the assay on Serum Cholesterol (0.1 mg/kg, oral, daily for 4 days) is given as 6%; in the assay with Serum Cholesterol (1.0 mg/kg, oral, daily for 4 days) it was -10.2%. In addition, in the assay with Serum Cholesterol (Rattus norvegicus, po, 96 h, 10.0 mg/kg, daily for 4 days, OVX rats, read-out: Serum Cholesterol (% decrease vs. OVX)), the inhibition in vivo at 10 mg/kg came to 26.3%. The “IC50, MCF-7 proliferation” value in assay [4] is reported as “Not active at the concentration tested”.
